The values below come from ChEMBL document CHEMBL1201862, “PubChem BioAssay data set” (2004).

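Results reflect a 48-hour exposure of cells in 96-well plates to compound at five concentrations. Here, GI50 denotes the concentration required for 50% inhibition of growth.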 The source made the active and inactive calls. Cut-off read from the data, not from the text of the source: active = GI50 up to about 1.1 µM and inactive = higher. Square brackets hold non-standard residues; d marks the D form. Peptide text beside a SMILES is read from it. pGlu = O=C1CC[C@@H](C(=O)O)N1; Thz = O=C(O)[C@@H]1CSCN1

Among the test systems are NCI-H460; LOX IMVI; HCT-15; SF-539; PC-3; UO-31; SF-295; M14; HCC 2998; NCI-H23; 786-0; SR; IGROV-1; Malme-3M; A498; HL-60; HCT-116; OVCAR-4; MDA-MB-435; HOP-92.
Common to all, as to assay: NCI tumour cell line growth inhibition, 48 h

Take `Clc1cc(OCC23CC4CC(CC(C4)C2)C3)nc(OCC23CC4CC(CC(C4)C2)C3)n1`: the GI50 in the assay with NCI-H460 was > 100 µM (inactive); in the assay on LOX IMVI it was > 100 µM (inactive); in the assay on HCT-15, more than 100 µM; in the assay with SF-539 it was > 100 µM (inactive); in the assay on PC-3, > 100 µM (inactive); with UO-31, > 100 µM (inactive). For the same compound, the GI50 in the assay with SF-295 is 41.7 µM (inactive); in the assay with M14, > 100 µM (inactive); in the assay on HCC 2998, > 100 µM (inactive); in the assay with NCI-H23, > 100 µM (inactive); in the assay with 786-0, > 100 µM (inactive); in the assay with SR it was > 100 µM (inactive). Moreover, the GI50 in the assay on IGROV-1, in the assay with Malme-3M, in the assay with A498, in the assay on HL-60, in the assay with HCT-116 and with OVCAR-4 was > 100 µM (inactive) each time. In the assay with MDA-MB-435, the GI50 is > 100 µM (inactive).
As for `Cc1ccc2nc(Cl)c(/C=N/N3C(=O)/C(=C/c4cccc([N+](=O)[O-])c4)N=C3c3ccccc3)cc2c1`, the GI50 is 34.4 µM (inactive) with NCI-H460; 87.1 µM (inactive) in the assay on LOX IMVI; 42.2 µM with HCT-15; > 100 µM (inactive) with SF-539; 25.4 µM (inactive) with PC-3; 38 µM (inactive) with UO-31. Further, the GI50 in the assay with SF-295 is 40.9 µM (inactive); in the assay on M14, 63.1 µM (inactive); in the assay on HCC 2998, 67.5 µM (inactive); with 786-0, > 100 µM (inactive); in the assay on SR, 19.8 µM (inactive); with IGROV-1, 31.2 µM (inactive). Also, the GI50 in the assay with A498 was 7.71 µM (inactive); in the assay on HL-60, 39.2 µM (inactive); with HCT-116, 27.9 µM (inactive); with OVCAR-4, 58.7 µM (inactive); in the assay on MDA-MB-435, 20.7 µM (inactive); in the assay on HOP-92, 46.3 µM (inactive).
In the case of `Cc1n[nH]c(C(F)(F)F)c1/N=N/N1CCOCC1`, the GI50 is 4.27 µM (inactive) in the assay on NCI-H460; 1.97 µM (inactive) in the assay on LOX IMVI; 8.81 µM in the assay on HCT-15; 14.2 µM (inactive) in the assay on SF-539; 7.16 µM (inactive) with PC-3; 2.4 µM (inactive) in the assay with UO-31. Besides, the GI50 in the assay with SF-295 was 12.6 µM (inactive); with M14, 14.7 µM (inactive); in the assay with HCC 2998, 1.53 µM (inactive); in the assay with NCI-H23, 4.06 µM (inactive); with 786-0 it was 2.63 µM (inactive); with SR, 1.24 µM (inactive). Moreover, the GI50 is 10.7 µM (inactive) in the assay with IGROV-1; 14.9 µM (inactive) in the assay on Malme-3M; 17.4 µM (inactive) with A498; 1.94 µM (inactive) with HCT-116; 5.86 µM (inactive) in the assay with OVCAR-4; 12.2 µM (inactive) with MDA-MB-435. Moreover, the GI50 with HOP-92 is 2.42 µM (inactive).
In the case of `c1ccc([P+](CCN2Cc3ccccc3C2)(c2ccccc2)c2ccccc2)cc1`, the GI50 is 5.79 µM (inactive) with NCI-H460; 3.84 µM (inactive) with LOX IMVI; 12.7 µM with HCT-15; 6.15 µM (inactive) with SF-539; 4.8 µM (inactive) in the assay on PC-3; 12.1 µM (inactive) in the assay with UO-31. The GI50 is 6.92 µM (inactive) in the assay on SF-295; 5.36 µM (inactive) with M14; 2.94 µM (inactive) in the assay with HCC 2998; 5.46 µM (inactive) in the assay on NCI-H23; 8.17 µM (inactive) with 786-0; 4.33 µM (inactive) with SR. Also, the GI50 in the assay on IGROV-1 was 0.368 µM (active); with Malme-3M, 8.59 µM (inactive); in the assay with A498, 18 µM (inactive); in the assay with HL-60, 2.77 µM (inactive); in the assay with HCT-116 it was 3 µM (inactive); in the assay with MDA-MB-435 it was 3.58 µM (inactive). Moreover, the GI50 in the assay with HOP-92 is 1.08 µM (active).
As for `O=C1C=C2C(=NC34CCCCC3C(c3ccccc3)C3=C(c5ccccc5CC3)N24)c2ccccc21` (stereo not drawn), the GI50 in the assay with NCI-H460 is > 10 µM (inactive); in the assay on LOX IMVI, > 10 µM (inactive); with HCT-15, more than 10 µM; in the assay with SF-539, > 10 µM (inactive); in the assay with PC-3, > 10 µM (inactive); in the assay on SF-295 it was > 10 µM (inactive). Also, the GI50 with M14 is > 10 µM (inactive); in the assay with HCC 2998, > 10 µM (inactive); with NCI-H23, > 10 µM (inactive); with 786-0, > 10 µM (inactive); in the assay on SR, 8.22 µM (inactive); with IGROV-1 it was > 10 µM (inactive). Besides, the GI50 in the assay on Malme-3M, in the assay on A498, in the assay on HL-60, in the assay on HCT-116, in the assay on OVCAR-4 and in the assay on MDA-MB-435 was > 10 µM (inactive) in each case. Moreover, the GI50 with HOP-92 was > 10 µM (inactive).
In the case of `COc1ccc(C2Oc3c(cccc3-c3c(-c4ccc(O)cc4)oc4cc(O)cc(O)c4c3=O)C(=O)C2O)cc1O` (stereo not drawn), the GI50 was > 100 µM (inactive) in the assay on NCI-H460; more than 100 µM in the assay on HCT-15; > 100 µM (inactive) with PC-3; > 100 µM (inactive) in the assay on UO-31; > 100 µM (inactive) with SF-295; > 100 µM (inactive) in the assay with M14. Further, the GI50 in the assay with HCC 2998, in the assay on NCI-H23, in the assay with 786-0, with SR, with IGROV-1 and with Malme-3M was > 100 µM (inactive) each time. Also, the GI50 in the assay on A498, with HL-60, with HCT-116, in the assay with OVCAR-4, in the assay with MDA-MB-435 and with HOP-92 was > 100 µM (inactive) each time.
Take `Cc1c(/C=N/NC(=S)Nc2ccc([N+](=O)[O-])cc2)c(=O)n(-c2ccccc2)n1C`: the GI50 was 15.2 µM (inactive) with LOX IMVI; 3.08 µM with HCT-15; 16.4 µM (inactive) with SF-539; 19.1 µM (inactive) in the assay with PC-3; 11.4 µM (inactive) in the assay with UO-31; 8.53 µM (inactive) with SF-295. The GI50 in the assay on M14 was 11.2 µM (inactive); with HCC 2998 it was 42.3 µM (inactive); in the assay with NCI-H23 it was 17.9 µM (inactive); with 786-0, 14.3 µM (inactive); in the assay with SR, 17.4 µM (inactive); in the assay on IGROV-1 it was 12.5 µM (inactive). The GI50 was 10.9 µM (inactive) with A498; 35.2 µM (inactive) in the assay with HL-60; 18.6 µM (inactive) with HCT-116; 14.6 µM (inactive) in the assay with OVCAR-4; > 100 µM (inactive) in the assay on MDA-MB-435; 11.8 µM (inactive) with HOP-92.
For `CCC(=O)O[C@H]1CC[C@H]2[C@@H]3CCC4=C/C(=N/OC(=O)c5cccc6cc7ccccc7nc56)CC[C@]4(C)[C@H]3CC[C@]12C`, the GI50 was 39.1 µM (inactive) in the assay on NCI-H460; 33.4 µM (inactive) in the assay with LOX IMVI; 55.7 µM in the assay with HCT-15; 43.4 µM (inactive) in the assay with SF-539; 29 µM (inactive) in the assay with PC-3; 64.1 µM (inactive) with M14. For the same compound, the GI50 with HCC 2998 is > 100 µM (inactive); with NCI-H23 it was 52.8 µM (inactive); in the assay on 786-0, > 100 µM (inactive); in the assay with SR, 67.9 µM (inactive); in the assay on IGROV-1, 11.5 µM (inactive); in the assay on Malme-3M it was 29.2 µM (inactive). Besides, the GI50 with A498 is > 100 µM (inactive); in the assay with HL-60 it was 44.3 µM (inactive); with HCT-116, 36.1 µM (inactive); in the assay with OVCAR-4, 76 µM (inactive); in the assay on MDA-MB-435, 38.8 µM (inactive); in the assay on HOP-92, > 100 µM (inactive).
`COc1ccc2c(c1)/C(=C\c1c(Cl)nc3sc(C)cn13)C(=O)N2`: the GI50 in the assay with NCI-H460 is 2.51 µM (inactive); in the assay on LOX IMVI, 4.22 µM (inactive); in the assay with HCT-15, 2.62 µM; in the assay on SF-539 it was 2.01 µM (inactive); in the assay with PC-3 it was 2.78 µM (inactive); in the assay on UO-31, 5.45 µM (inactive). The GI50 is 1.74 µM (inactive) with SF-295; 2.69 µM (inactive) in the assay on M14; 6.43 µM (inactive) with HCC 2998; 4.12 µM (inactive) in the assay on NCI-H23; 4.22 µM (inactive) in the assay on 786-0; 0.7 µM (active) in the assay with SR. The GI50 is 3.72 µM (inactive) in the assay on IGROV-1; 2.37 µM (inactive) in the assay with Malme-3M; 3.7 µM (inactive) in the assay with A498; 1.34 µM (inactive) in the assay on HL-60; 3.1 µM (inactive) in the assay on HCT-116; 0.286 µM (active) with MDA-MB-435. For the same compound, in the assay on HOP-92, the GI50 was 10.6 µM (inactive).
Turning to `Cc1cc(C)c(O)c(CN2CCN(C(C)C)CCN(C(C)C)CC2)c1`, the GI50 in the assay with NCI-H460 is 34.7 µM (inactive); in the assay with LOX IMVI, 16.1 µM (inactive); with HCT-15 it was 46.7 µM; in the assay on SF-539, 10.4 µM (inactive); with PC-3 it was 22.3 µM (inactive); with UO-31, 18.6 µM (inactive). Moreover, the GI50 in the assay on SF-295 is 15.7 µM (inactive); in the assay on M14, 12.4 µM (inactive); in the assay with HCC 2998, 18.8 µM (inactive); with 786-0, 42.9 µM (inactive); in the assay with SR it was 17.9 µM (inactive); in the assay on IGROV-1, 2.26 µM (inactive). In addition, the GI50 in the assay on Malme-3M is 13.8 µM (inactive); in the assay on A498, > 100 µM (inactive); with HL-60, 11.7 µM (inactive); in the assay on HCT-116 it was 7.41 µM (inactive); in the assay with OVCAR-4, 46.6 µM (inactive); in the assay with MDA-MB-435, 18 µM (inactive). In the assay on HOP-92, the GI50 was 13.7 µM (inactive).
With `O=C1CC[C@@H](C(=O)N2CSC[C@H]2C(=O)O)N1` [PIDOTIMOD] ([pGlu]-[Thz]-OH), the GI50 was > 100 µM (inactive) in the assay on NCI-H460; > 100 µM (inactive) with LOX IMVI; more than 100 µM in the assay with HCT-15; > 100 µM (inactive) in the assay with SF-539; > 100 µM (inactive) with PC-3; > 100 µM (inactive) in the assay with UO-31. Moreover, the GI50 in the assay on SF-295, in the assay with M14, in the assay with HCC 2998, in the assay with NCI-H23, in the assay on 786-0 and with SR was > 100 µM (inactive) in each case. The GI50 with IGROV-1, in the assay on Malme-3M, in the assay with A498, in the assay with HL-60 and in the assay on MDA-MB-435 was > 100 µM (inactive) each time.
